Reference: patent US20120035203A1, “BUTACLAMOL FOR THE TREATMENT OF AMYOTROPHIC LATERAL SCLEROSIS” (CAMBRIA PHARMACEUTICALS, INC., priority 2009, published 2012)

Key:
[1] = tested on: PC12 cells that express mutant G93A SOD1 as a YFP fusion protein; assay: high throughput cytotoxicity protection assay
Description: This idea was tested by examining the sensitivity of PC12 cells to SOD1 aggregates in the presence and absence of proteasome inhibitor MG132. PC12 cells expressing no SOD1, wild type SOD1, G85R SOD1 or G93A SOD1 were grown with or without MG132 (FIG. 1). […] The ability of protein aggregates to induce cell death was examined by treating G93A SOD1-expressing cells with MG132 for 24 h, removing the MG132 by washing and assaying cell viability after another 24 h.
PC12 cells expressing G93A SOD1 were treated with 100 nM MG132 with or without co-treatment with geldanamycin or radicicol.

[2] = high doses; cited from earlier work
[3] = tested on: rats with unilateral lesions in the substantia nigra; conditions: at 100 to 500 times larger doses than the (+) enantiomer; cited from earlier work

In the case of (−) butaclamol, the “activity in the protection assay” value [1] is listed as “only the eutomer (+butaclamol) showed activity”, the “effect on epinephrine-induced mortality” value [2] is listed as “devoid of any such activity” and the behavioral activity [3] is listed as “devoid of behavioral activity”.
